pEC50, pIC50: −log10 of the molar value.

For orientation: pIC50 means the negative decadic logarithm of the IC50, by convention in mol/L. Usually pEC50 stands for the negative decadic logarithm of the EC50, by convention in mol/L. Low values mean a large EC50, high ones a small EC50.

In one experiment the target is T1, Estrogen-related receptor gamma (Homo sapiens, UniProt P62508).
T1 sequence (P62508 whole entry): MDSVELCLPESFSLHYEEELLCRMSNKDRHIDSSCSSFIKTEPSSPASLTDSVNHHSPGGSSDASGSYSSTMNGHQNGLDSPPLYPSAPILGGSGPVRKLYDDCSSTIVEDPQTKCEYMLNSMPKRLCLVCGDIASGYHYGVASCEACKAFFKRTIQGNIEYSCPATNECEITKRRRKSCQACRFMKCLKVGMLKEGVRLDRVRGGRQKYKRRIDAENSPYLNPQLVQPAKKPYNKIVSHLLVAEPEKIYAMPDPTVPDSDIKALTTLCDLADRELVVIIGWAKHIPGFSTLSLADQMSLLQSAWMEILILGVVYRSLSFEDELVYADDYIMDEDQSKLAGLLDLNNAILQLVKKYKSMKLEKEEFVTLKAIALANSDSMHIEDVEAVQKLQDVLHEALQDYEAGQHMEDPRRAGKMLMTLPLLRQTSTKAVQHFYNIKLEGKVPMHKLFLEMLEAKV
Briefly: Inhibition of [3H]4-OHT binding to Estrogen-Related Receptor gamma.
As to `CCN(CC)c1ccc(/C=N/NC(=O)c2ccc(O)cc2)cc1`, the pIC50 was 6.18.

The target in another experiment is T1, Estrogen-related receptor gamma. Briefly: Estrogen-Related Receptor gamma activity in FRET assay. Format: functional.
Compound `CCN(CC)c1ccc(/C=N/NC(=O)c2ccc(N)cc2)cc1` had a pEC50 of 6.20.
Compound `CCN(CC)c1ccc(/C=N/NC(=O)c2ccc(O)cc2)cc1` had a pEC50 of 6.89.
On the same count and under the same terms, under `CCN(CC)c1ccc(/C(C)=N/NC(=O)c2ccc(O)cc2)cc1` stands 6.30.
Still for that read-out and setting: under `CCN(CC)c1ccc(/C=N/NC(=O)c2ccccc2)cc1` stands 5.80.

The next experiment shares this target. Nature of the experiment: Estrogen-Related Receptor gamma activity in FRET assay; i.a.=inactive at 3 uM. Format: functional.
For the compound `CCN(CC)c1ccc(/C=N/NC(=O)c2ccc(O)cc2)c(O)c1`, the EC50 entry is “Not Active”.
On the same count and under the same terms, the entry for `CCN(CC)c1ccc(/C=N/NS(=O)(=O)c2ccc(O)cc2)cc1` is “Not Active”; for `CC(C)(C)Oc1ccc(/C=N/NC(=O)c2ccc(O)cc2)cc1` it is “Not Active”.
Still for that read-out and setting: the entry for `CCN(CC)c1ccc(/C=N/NC(=O)c2ccc(F)cc2)cc1` is “Not Active”; for `CC(C)c1ccc(C(=O)NNC(=O)c2ccc(O)cc2)cc1` it is “Not Active”.

The record behind these values is ChEMBL document CHEMBL1143621, “Identification and structure-activity relationship of phenolic acyl hydrazones as selective agonists for the estrogen-related orphan nuclear receptors ERRbeta and ERRgamma” (J Med Chem, 2005).
